In US20180036292A1, “PHARMACEUTICAL COMPOSITIONS FOR THE TREATMENT OF BACTERIAL INFECTIONS” (WOCKHARDT LIMITED, priority 2016, published 2018):
Read-outs that look alike come from different tables or passages of the source.

Columns and labels:
[1] = Study 3: concentrations in plasma, epithelial lining fluid (ELF) and alveolar macrophages (AM) after 800 mg once daily for three days; type: in vivo, human; settings: for Kp / Kp at 3 h / Kp at 6 h / Kp at 9 h / Kp at 12 h / Kp at 24 h / Kp at 48 h: both sexes, human; for Kp: oral, range over the 48-hour period after drug administration, 800 mg once daily for 3 days; for Kp at 3 h / Kp at 6 h / Kp at 9 h / Kp at 12 h / Kp at 24 h / Kp at 48 h: healthy subjects, 800 mg oral once daily for 3 days, mean ± SD; for Kp at 3 h: sampling time 3 hr after third dose; for Kp at 6 h: sampling time 6 hr after third dose; for Kp at 9 h: sampling time 9 hr after third dose; for Kp at 12 h: sampling time 12 hr after third dose; for Kp at 24 h: sampling time 24 hr after third dose; for Kp at 48 h: sampling time 48 hr after third dose
Experimental: Healthy male and female subjects 18 years of age or older who met the study entry criteria were enrolled into the pharmacokinetic study. Each subject received 800 mg (2 tablets of 400 mg) of compound of Formula (I) administered once daily for three days, with 240 ml of drinking water at a consistent time within two hours after a standard meal and direct observation at the study site. Blood samples were collected to measure concentration of compound of Formula (I) in plasma at 3, 6, 9, 12, 24, and 48 hours following the third dose of compound of Formula (I). Similarly, bronchoscopy was done to measure concentration of compound of Formula (I) in epithelial lining fluid (ELF) and alveolar macrophages (AM) 3, 6, 9, 12, 24, and 48 hours following the third dose of compound of Formula (I). The mean (±SD) concentrations of compound of Formula (I) in plasma (total), ELF, and AM at the bronchopulmonary sampling times are illustrated in FIG. 4. […] Table 1 gives the mean (±SD) ratios of compound of Formula (I) in ELF or AM to the simultaneous total plasma concentrations. The mean ratios of ELF and AM to simultaneous total plasma concentration for compound of Formula (I) during the 48-hour period after drug administration ranged from 10 to 30 and 270 to 800, respectively.

[2] = Study 2: Phase 1 multiple ascending dose, drug concentrations in plasma and polymorphonuclear leukocytes (PMN); type: in vivo, human; settings: healthy subjects, 600, 800 and 1000 mg once daily day 1 to day 7; sampling day 1 and day 7
Experimental: A Phase 1, randomised, double-blind, single center, placebo controlled sequential cohort study in a maximum of 3 cohort of 10 healthy male and/or female subject each was conducted. Subjects received ascending multiple doses of compound of Formula (I) (600, 800 and 1000 mg) or matching placebo once daily on day 1 to day 7. Blood sampling was performed on day 1 and day 7 to determine the drug concentrations in plasma and polymorphonuclear leukocytes (PMN) (FIG. 2 and FIG. 3). […] Blood sampling was also undertaken at intermittent days to determine the number of doses required to attain the steady state.

[3] = alveolar macrophages (AM) / plasma (total), read-out: AM to Plasma (Total) concentration ratio
[4] = epithelial lining fluid (ELF) / plasma (total), read-out: ELF to Plasma (Total) concentration ratio

Which Kp ([1]; alveolar macrophages (AM) / plasma (total), read-out: mean ratio of AM to simultaneous total plasma concentration) does the source give for `CC[C@@H]1OC(=O)[C@H](C)C(=O)[C@H](C)[C@@H](OC2O[C@H](C)C[C@H](N(C)C)[C@H]2O)[C@](C)(OC)C[C@@H](C)C(=O)[C@H](C)[C@H]2[C@H](/C(N)=N/O[C@@H](C)c3nnc(-c4ccccn4)s3)C(=O)O[C@@]21C` (stereo partly shown) [compound of Formula (I)] here?
The Kp was 270 to 800.

And the Kp at 3 h [1, 3]?
The Kp at 3 h was 274 ± 187.

What about the Kp at 6 h [1, 3] of the same compound?
Its Kp at 6 h is 378 ± 172.

What about the Kp at 9 h [1, 3] of the same compound?
Its Kp at 9 h is 383 ± 260.

What about the Kp at 12 h [1, 3] of the same compound?
Its Kp at 12 h is 791 ± 614.

And the Kp at 24 h [1, 3]?
Its Kp at 24 h is 486 ± 193.

And the Kp at 48 h [1, 3]?
Its Kp at 48 h is 428 ± 189.

And the Kp ([1]; epithelial lining fluid (ELF) / plasma (total), read-out: mean ratio of ELF to simultaneous total plasma concentration)?
The Kp was 10 to 30.

And the Kp at 3 h [1, 4]?
The Kp at 3 h was 17 ± 12.

What about the Kp at 6 h [1, 4] of the same compound?
The Kp at 6 h was 14.5 ± 8.8.

What about the Kp at 9 h [1, 4] of the same compound?
The Kp at 9 h was 10.4 ± 6.5.

What about the Kp at 12 h [1, 4] of the same compound?
The Kp at 12 h was 12.4 ± 9.3.

And the Kp at 24 h [1, 4]?
The Kp at 24 h was 17.6 ± 6.2.

What about the Kp at 48 h [1, 4] of the same compound?
Its Kp at 48 h is 27.2 ± 6.5.

What about the “concentrations in ELF and AM compared with simultaneous plasma concentrations” value ([1]; oral 800 mg, throughout the 48-hour period after 3 days of once-daily dosing) of the same compound?
The value was “significantly higher in ELF and AM than simultaneous plasma concentrations”.

What about the “accumulation in polymorphonuclear leukocytes (PMN) in comparison to plasma” value [2] of the same compound?
Its value is “accumulated more in polymorphonuclear leukocytes (PMN) in comparison to plasma”.
